27 molecules from patent publication US9102591B2, “Benzamides” (H. Lundbeck A/S, priority 2012, dated 2015) can be followed below.

Sequence of P2X7 receptor (Q99572 whole entry): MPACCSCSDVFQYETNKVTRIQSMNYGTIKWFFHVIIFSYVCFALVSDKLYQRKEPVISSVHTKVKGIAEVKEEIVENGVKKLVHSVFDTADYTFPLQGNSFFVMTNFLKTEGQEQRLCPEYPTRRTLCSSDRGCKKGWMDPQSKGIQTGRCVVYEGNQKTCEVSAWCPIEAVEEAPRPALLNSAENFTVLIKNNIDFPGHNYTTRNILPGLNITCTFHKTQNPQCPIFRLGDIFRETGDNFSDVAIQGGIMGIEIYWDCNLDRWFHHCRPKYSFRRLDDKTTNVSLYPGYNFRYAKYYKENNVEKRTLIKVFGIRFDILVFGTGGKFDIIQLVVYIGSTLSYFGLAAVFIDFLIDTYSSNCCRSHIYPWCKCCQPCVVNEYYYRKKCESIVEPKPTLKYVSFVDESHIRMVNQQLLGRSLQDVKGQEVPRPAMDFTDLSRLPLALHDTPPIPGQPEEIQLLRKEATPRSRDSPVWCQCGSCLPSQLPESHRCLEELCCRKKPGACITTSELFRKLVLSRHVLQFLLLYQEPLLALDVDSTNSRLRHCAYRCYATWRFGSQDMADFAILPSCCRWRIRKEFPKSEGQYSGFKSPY

The first assay has as its target P2X7 receptor (Homo sapiens (Human), UniProt Q99572). Description: P2X7 FLIPR assay (BzATP-stimulated calcium fluorescence, antagonist IC50). The format is cell-based.
Settings: not given
The procedure: This example illustrates representative assays for use in evaluating the test compounds for antagonist activity. Compounds of the present invention were tested in vitro for their ability to act as antagonists to the P2X7receptor. […]
Cells were plated to cell density of approximately 15,000 cells/well in 384-well assay plates (50 μl/well) with 1.5% low serum media (DMEM, 1.5% FBS, 1% L-glut (2 mM), 10 mM HUES, 1% P/S). Cells were plated 24 hours prior to assay. Cells expressing human, rat or mouse P2X7 receptor were assayed in the following manner.
Fluo-4 NW dye mix (Molecular Probes, Inc., Eugene, Oreg., USA) was prepared in buffer (see manufacturer's instructions). Cell plates were removed from the 37° C. incubator, the media discarded and then 30 μL of dye was added to each well. Plates were placed in the 37° C., non-CO2 incubator for 30 minutes and then room temperature for 30 minutes.
Compound mixtures (A) were added to assay plates containing cells and placed at room temperature for 30 minutes, then BzATP (B) was added. Fluorescence was read using the Tetra FLIPR® (Molecular Devices, Inc., Sunnyvale, Calif., USA) and IC50 values were calculated by standard methods to determine antagonist activity.
With `O=C(NCC1(c2ccc(C(F)(F)F)cc2)CCOCC1)c1cccc(Cl)c1Cl`, the half-inhibitory concentration (IC50) (as a rule, the concentration that gives 50% inhibition) was 41 nM.

As to `Cc1ccc(C2(CNC(=O)c3cccc(Cl)c3Cl)CCC(F)(F)CC2)cn1`, the concentration for half-maximal inhibition (IC50) is 7.3 nM.

Turning to `COc1cccc(C(=O)NCC2(c3ccc(F)nc3)CCC(F)(F)CC2)c1F`, the 50% inhibitory concentration (IC50) is 100 nM.

As to `O=C(NC[C@H](c1cnc(C(F)(F)F)nc1)C1CCOCC1)c1cccc(Cl)c1Cl` (single isomer, unassigned) [(+)2,3-dichloro-N-[2-tetrahydropyran-4-yl-2-[2-trifluoromethyl)pyrimidin-5-yl]ethyl]benzamide], the IC50 worked out at 4.1 nM.

With `Cc1ncc(C(CNC(=O)c2cccc(Cl)c2Cl)C2CCOCC2)cn1` (single isomer, unassigned; (+)) [(+)2,3-dichloro-N-[2-(2-methylpyrimidin-5-yl)-2-tetrahydropy] [(+)2,3-dichloro-N-[2-(2-methylpyrimidin-5-yl)-2-tetrahydropyran-4-yl-ethyl]benzamide], the IC50 was determined as 28 nM.

As for `Cc1ncc(C(CNC(=O)c2cccc(Cl)c2Cl)CC2(C(F)(F)F)CC2)cn1` (single isomer, unassigned; (+)) [(+)2,3-dichloro-N-[2-(2-methylpyrimidin-5-yl)-3-[1-(trifluor] [(+)2,3-dichloro-N-[2-(2-methylpyrimidin-5-yl)-3-[1-(trifluoromethyl)cyclopropyl]propyl]benzamide], the half-inhibitory concentration (IC50) stood at 1.5 nM.

On to `O=C(NCC(c1cnc(C(F)(F)F)nc1)C1CCC(F)(F)CC1)c1cccc(Cl)c1Cl` (single isomer, unassigned; (+)) [(+)2,3-dichloro-N-[2-(4,4-difluorocyclohexyl)-2-[2-(trifluor] [(+)2,3-dichloro-N-[2-(4,4-difluorocyclohexyl)-2-[2-(trifluoromethyl)pyrimidin-5-yl]ethyl]benzamide], for which the 50% inhibitory concentration (IC50) turned out to be 5.7 nM.

Take `O=C(NCC(c1ccc(F)cc1)c1cnc(C(F)(F)F)nc1)c1cccc(Cl)c1Cl` (single isomer, unassigned; (+)) [(+)2,3-dichloro-N-[2-(4-fluorophenyl)-2-[2-(trifluoromethyl)] [(+)2,3-dichloro-N-[2-(4-fluorophenyl)-2-[2-(trifluoromethyl)pyrimidin-5-yl]ethyl]benzamide]: the IC50 is 1.1 nM.

For `O=C(NCC(c1ccc(F)cc1)c1ccc(C(F)(F)F)nc1)c1cccc(Cl)c1Cl` (single isomer, unassigned; (+)) [(+)2,3-dichloro-N-[2-(4-fluorophenyl)-2-[6-(trifluoromethyl)] [(+)2,3-dichloro-N-[2-(4-fluorophenyl)-2-[6-(trifluoromethyl)-3-pyridyl]ethyl]benzamide], the IC50 was 12 nM.

In the case of `O=C(NCC(CC1(C(F)(F)F)CC1)c1cnc(C(F)(F)F)nc1)c1cccc(Cl)c1Cl` (single isomer, unassigned; (+)) [(+)2,3-dichloro-N-[3-[1-(trifluoromethyl)cyclopropyl]-2-[2-(] [(+)2,3-dichloro-N-[3-[1-(trifluoromethyl)cyclopropyl]-2-[2-(trifluoromethyl)pyrimidin-5-yl]propyl]benzamide], the half-maximal inhibitory concentration (IC50) was 1.6 nM.

Turning to `O=C(NCC(CC1(C(F)(F)F)CC1)c1ccc(C(F)(F)F)nc1)c1cccc(Cl)c1Cl` (single isomer, unassigned; (+)) [(+)2,3-dichloro-N-[3-[1-(trifluoromethyl)cyclopropyl]-2-[6-(] [(+)2,3-dichloro-N-[3-[1-(trifluoromethyl)cyclopropyl]-2-[6-(trifluoromethyl)-3-pyridyl]propyl]benzamide], the concentration for half-maximal inhibition (IC50) came out at 12 nM.

For `O=C(NCC(CC1CC1)c1cnc(C(F)F)nc1)c1cccc(Cl)c1Cl` (single isomer, unassigned; (+)) [(+)2,3-dichloro-N-[3-cyclopropyl-2-[2-(difluoromethyl)pyrimi] [(+)2,3-dichloro-N-[3-cyclopropyl-2-[2-(difluoromethyl)pyrimidin-5-yl]propyl]benzamide], the half-maximal inhibitory concentration (IC50) amounted to 23 nM.

For `O=C(NCC(CC1CC1)c1cnc(C(F)(F)F)nc1)c1cccc(Cl)c1Cl` (single isomer, unassigned; (+)) [(+)2,3-dichloro-N-[3-cyclopropyl-2-[2-(trifluoromethyl)pyrim] [(+)2,3-dichloro-N-[3-cyclopropyl-2-[2-(trifluoromethyl)pyrimidin-5-yl]propyl]benzamide], the IC50 worked out at 3.9 nM.

Take `CC(C)(O)c1ccc(C(CNC(=O)c2cccc(Cl)c2Cl)CC2CC2)cn1` (single isomer, unassigned; (+)) [(+)2,3-dichloro-N-[3-cyclopropyl-2-[6-(1-hydroxy-1-methyl-et] [(+)2,3-dichloro-N-[3-cyclopropyl-2-[6-(1-hydroxy-1-methyl-ethyl)-3-pyridyl]propyl]benzamide]: the half-inhibitory concentration (IC50) came to 740 nM.

As to `O=C(NCC(CC1CC1)c1ccc(C(F)F)nc1)c1cccc(Cl)c1Cl` (single isomer, unassigned; (+)) [(+)2,3-dichloro-N-[3-cyclopropyl-2-[6-(difluoromethyl)-3-pyridyl]propyl]benzamide], the IC50 came out at 24 nM.

Regarding `O=C(NCC(CC1CC1)c1ccc(C(F)(F)F)nc1)c1cccc(Cl)c1Cl` (single isomer, unassigned; (+)) [(+)2,3-dichloro-N-[3-cyclopropyl-2-[6-(trifluoromethyl)-3-py] [(+)2,3-dichloro-N-[3-cyclopropyl-2-[6-(trifluoromethyl)-3-pyridyl]propyl]benzamide], the 50% inhibitory concentration (IC50) was 2.6 nM.

`CC(CNC(=O)c1cccc(Cl)c1Cl)(CC1CC1)c1cnc(C(F)(F)F)nc1` (single isomer, unassigned; (+)) [(+)2,3-dichloro-N-[3-cyclopropyl-2-methyl-2-[2-(trifluoromethyl)pyrimidin-5-yl]propyl]benzamide]: the IC50 stood at 74 nM.

With `O=C(NCC(c1ccccc1)c1ccc(C(F)(F)F)nc1)c1c(Cl)cccc1Cl` (single isomer, unassigned; (+)) [(+)2,6-dichloro-N-[2-phenyl-2-[6-(trifluoromethyl)-3-pyridyl] [(+)2,6-dichloro-N-[2-phenyl-2-[6-(trifluoromethyl)-3-pyridyl]ethyl]benzamide], the half-inhibitory concentration (IC50) came out at 12 nM.

`Cc1ncc(C(CNC(=O)c2c(Cl)cccc2Cl)CC2CC2)cn1` (single isomer, unassigned; (+)) [(+)2,6-dichloro-N-[3-cyclopropyl-2-(2-methylpyrimidin-5-yl)p] [(+)2,6-dichloro-N-[3-cyclopropyl-2-(2-methylpyrimidin-5-yl)propyl]benzamide]: the IC50 worked out at 220 nM.

Take `O=C(NCC(CC1CC1)c1cnc(C(F)(F)F)nc1)c1c(Cl)cccc1Cl` (single isomer, unassigned; (+)) [(+)2,6-dichloro-N-[3-cyclopropyl-2-[2-(trifluoromethyl)pyrim] [(+)2,6-dichloro-N-[3-cyclopropyl-2-[2-(trifluoromethyl)pyrimidin-5-yl]propyl]benzamide]: the concentration for half-maximal inhibition (IC50) amounted to 3.8 nM.

In the case of `O=C(NCC(CC1CC1)c1ccc(C(F)(F)F)nc1)c1c(Cl)cccc1Cl` (single isomer, unassigned; (+)) [(+)2,6-dichloro-N-[3-cyclopropyl-2-[6-(trifluoromethyl)-3-py] [(+)2,6-dichloro-N-[3-cyclopropyl-2-[6-(trifluoromethyl)-3-pyridyl]propyl]benzamide], the IC50 came out at 0.89 nM.

For `O=C(NCC(c1ccc(F)cc1)c1cnc(C(F)(F)F)nc1)c1cccc(F)c1Cl` (single isomer, unassigned; (+)) [(+)2-chloro-3-fluoro-N-[2-(4-fluorophenyl)-2-[2-(trifluorome] [(+)2-chloro-3-fluoro-N-[2-(4-fluorophenyl)-2-[2-(trifluoromethyl)pyrimidin-5-yl]ethyl]benzamide], the IC50 turned out to be 4.8 nM.

For the molecule `O=C(NCC(c1ccc(F)cc1)c1ccc(C(F)(F)F)nc1)c1cccc(F)c1Cl` (single isomer, unassigned; (+)) [(+)2-chloro-3-fluoro-N-[2-(4-fluorophenyl)-2-[6-(trifluorome] [(+)2-chloro-3-fluoro-N-[2-(4-fluorophenyl)-2-[6-(trifluoromethyl)-3-pyridyl]ethyl]benzamide], the IC50 is 4.6 nM.

As to `O=C(NCC(c1cnc(C(F)(F)F)nc1)C1CCOCC1)c1cccc(F)c1Cl` (single isomer, unassigned; (+)) [(+)2-chloro-3-fluoro-N-[2-tetrahydropyran-4-yl-2-[2-(trifluo] [(+)2-chloro-3-fluoro-N-[2-tetrahydropyran-4-yl-2-[2-(trifluoromethyl)pyrimidin-5-yl]ethyl]benzamide], the half-inhibitory concentration (IC50) was determined as 32 nM.

As to `O=C(NCC(CC1(C(F)(F)F)CC1)c1cnc(C(F)(F)F)nc1)c1cccc(F)c1Cl` (single isomer, unassigned; (+)) [(+)2-chloro-3-fluoro-N-[3-[1-(trifluoromethyl)cyclopropyl]-2] [(+)2-chloro-3-fluoro-N-[3-[1-(trifluoromethyl)cyclopropyl]-2-[2-(trifluoromethyl)pyrimidin-5-yl]propyl]benzamide], the 50% inhibitory concentration (IC50) was 4.5 nM.

Staying with this assay, now noted: listed as (+)N-[3-cyclopropyl-2-[6-(trifluoromethyl)-3-pyridyl]propyl]-2-methoxy-benzamide.
For the molecule `COc1ccccc1C(=O)NCC(CC1CC1)c1ccc(C(F)(F)F)nc1` (single isomer, unassigned) [Example 4p, (+)—N-(3-cyclopropyl-2-(6-(trifluoromethyl)pyridin-3-yl)propyl)-2-methoxybenzamide], the IC50 is 990 nM.

The assay is the same for the next values; noted with them: listed as (−)N-[3-cyclopropyl-2-[6-(trifluoromethyl)-3-pyridyl]propyl]-2-methoxy-benzamide.
Consider `COc1ccccc1C(=O)NCC(CC1CC1)c1ccc(C(F)(F)F)nc1` (single isomer, unassigned) [Example 4o, (−)—N-(3-cyclopropyl-2-(6-(trifluoromethyl)pyridin-3-yl)propyl)-2-methoxybenzamide], for which the half-inhibitory concentration (IC50) stood at 53 nM.
